Earlier results as cited in US8481483B2, “Cyclosporin analogues” (priority 2009, dated 2013).

Key:
cyclophilin A = cyclophilin A (Homo sapiens, UniProt P62937)
[1] = system: hepatitis C virus replication; conditions: Antiviral Research 65(3):A41 (2005)

Chain of cyclophilin A (P62937 whole entry, species assumed): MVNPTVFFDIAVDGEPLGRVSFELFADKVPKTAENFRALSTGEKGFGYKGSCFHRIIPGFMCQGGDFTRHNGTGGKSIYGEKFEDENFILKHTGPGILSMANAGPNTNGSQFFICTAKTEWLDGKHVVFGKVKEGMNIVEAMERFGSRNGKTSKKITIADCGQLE

For `C/C=C/C[C@@H](C)[C@@H](O)[C@H]1C(=O)N[C@@H](CC)C(=O)N(C)[C@H](C)C(=O)N(CC)[C@@H](C(C)C)C(=O)N[C@@H](C(C)C)C(=O)N(C)[C@@H](CC(C)C)C(=O)N[C@@H](C)C(=O)N[C@H](C)C(=O)N(C)[C@@H](CC(C)C)C(=O)N(C)[C@@H](CC(C)C)C(=O)N(C)[C@@H](C(C)C)C(=O)N1C` [DEBIO-025], the “binding affinity for cyclophilin A” value (cyclophilin A) is listed as “potent binding affinity” and the “inhibition of hepatitis C virus replication” value [1] is listed as “potent and selective inhibition”.
